Experimental data taken from patent US20250059205A1, “Heterocyclic Compounds and Methods of Use” (AMGEN INC., priority 2021, published 2025).

Experiments:
[1] = target: His-tagged KRAS G12D protein (Homo sapiens, UniProt P01116, G12D); assay: KRAS G12D TR-FRET Assay; type: binding
[2] = target: GDP-bound KRAS protein (aa 1-169), containing both G12D and C118A amino acid substitutions (Homo sapiens, UniProt P01116, C118A/G12D); assay: KRAS G12D Coupled Nucleotide Exchange Assay; type: biochemical; details: 2 h compound pre-incubation
Experimental: Following compound pre-incubation, purified SOS protein (aa 564-1049) and GTP (Roche 10106399001) were added to the assay wells and incubated for an additional 30 min. […] The assay plates were then read on a PerkinElmer EnVision Multilabel Reader, using AlphaScreen® technology, and data were analyzed using a 4-parameter logistic model to calculate IC50 values.

[3] = system: Phosphorylation of ERK1/2 in A-427 cells; assay: Phospho-ERK1/2 MSD Assay (A-427 cells); type: cell-based; details: Homo sapiens, A-427, 2 h, 2 h treatment, read-out: p-ERK (A427 cells) IC50
How it was run: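 ERK1/2 phosphorylation measured by Meso Scale whole-cell lysate assay after A-427 cells were exposed to a titration of compound for 2 h at 37 °C.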

[4] = system: Phosphorylation of ERK1/2 in AsPC-1 cells; assay: Phospho-ERK1/2 MSD Assay (AsPC-1 cells); type: cell-based; details: Homo sapiens, ASPC1, 2 h, 2 hours treatment, read-out: p-ERK (AsPC-1 cells) IC50
How it was run: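 Read-out: MSD electrochemiluminescent detection of phosphorylated ERK1/2 in whole-cell lysates, fitted to a 4-parameter logistic curve for IC50. Prior to lysis, AsPC-1 cells (25,000 per well) received a 2 h compound dose-response at 37 °C.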

His-tagged KRAS G12D protein, sequence (P01116 1-188 isoform P01116-2 G12D): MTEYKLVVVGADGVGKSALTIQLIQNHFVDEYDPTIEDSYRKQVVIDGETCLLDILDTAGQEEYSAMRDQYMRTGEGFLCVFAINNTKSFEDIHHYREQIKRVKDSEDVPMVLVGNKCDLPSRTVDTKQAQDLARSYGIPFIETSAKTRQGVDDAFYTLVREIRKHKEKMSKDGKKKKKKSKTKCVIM
GDP-bound KRAS protein (aa 1-169), containing both G12D and C118A amino acid substitutions, sequence (P01116 1-169 isoform P01116-2 G12D/C118A): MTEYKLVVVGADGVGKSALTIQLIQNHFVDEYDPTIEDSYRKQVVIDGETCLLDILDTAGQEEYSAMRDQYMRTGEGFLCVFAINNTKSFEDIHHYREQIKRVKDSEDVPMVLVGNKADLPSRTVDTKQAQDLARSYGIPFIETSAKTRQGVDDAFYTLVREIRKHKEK

| SMILES | IC50 [1] [nM] | Avg 2 h Coupled Exchange IC50 [2] [nM] | IC50 [3] [nM] | IC50 [4] [nM] |
| --- | --- | --- | --- | --- |
| CN1C[C@H](F)C[C@H]1COc1nc(N2[C@@H]3CNC[C@H]2COC3)c2ccc(-c3cc(O)cc4ccccc34)c(F)c2n1 [Example 6, 4-(4-((1R,5S)-3-oxa-7,9-diazabicyclo[3.3. 1]nonan-9-yl)-8-fluoro-2-(((2S,4R)-4-fluoro-1-methylpyrrolidin-2-yl)methoxy)quinazolin-7-yl)naphthalen-2-ol] | 49 | 22 | 2310 | 5130 |
| Oc1cc(Cl)c(C2CC2)c(-c2ccc3c(N4C[C@H]5CC[C@@H](C4)N5)nc(OC[C@@]45CCCN4C[C@H](F)C5)nc3c2F)c1 [Example 145, 3-(4-((1R,5S)-3,8-diazabicyclo[3.2.1]octan-3-yl)-8-fluoro-2-(((2R,7aS)-2-fluorotetrahydro-1H-pyrrolizin-7a(5H)-yl)methoxy)quinazolin-7-yl)-5-chloro-4-cyclopropylphenol] | 2 | 3 | 11 | 39 |
| Oc1cc(-c2ccc3c(N4C[C@H]5CC[C@@H](C4)N5)nc(OC[C@@]45CCCN4C[C@H](F)C5)nc3c2)c2ccccc2c1 [Example 41, 4-(4-((1R,5S)-3,8-diazabicyclo[3.2. 1]octan-3-yl)-2-(((2R,7aS)-2-fluorotetrahydro-1H-pyrrolizin-7a(5H)-yl)methoxy)quinazolin-7-yl)naphthalen-2-ol] | 2 | 2 | 74 | 182 |
| CCc1cccc2cc(O)cc(-c3c(F)cc4c(N5C[C@H]6CC[C@@H](C5)N6)nc(OC[C@@]56CCCN5C[C@H](F)C6)nc4c3F)c12 [Example 147, 4-(4-((1R,5S)-3,8-diazabicyclo[3.2.1]octan-3-yl)-6,8-difluoro-2-(((2R,7aS)-2-fluorotetrahydro-1H-pyrrolizin-7a(5H)-yl)methoxy)quinazolin-7-yl)-5-ethylnaphthalen-2-ol] | 3 | 2 | 3 | 25 |
| Cc1cc2[nH]ncc2c(-c2ccc3c(N4C[C@H]5CC[C@@H](C4)N5)nc(OC[C@@]45CCCN4C[C@H](F)C5)nc3c2)c1Cl [Example 39, 4-((1R,5S)-3,8-diazabicyclo[3.2. 1]octan-3-yl)-7-(5-chloro-6-methyl-1H-indazol-4-yl)-2-(((2R,7aS)-2-fluorotetrahydro-1H-pyrrolizin-7a(5H)-yl)methoxy) quinazoline] | 20 | 9 | 569 | 1890 |
| CCc1c(F)ccc2cc(O)cc(-c3c(F)cc4c(N5C[C@H]6CC[C@@H](C5)N6)nc(OCc5nccn5C)nc4c3F)c12 [Example 213, 4-(4-((1R,5S)-3,8-diazabicyclo[3.2.1]octan-3-yl)-6,8-difluoro-2-((1-methyl-1H-imidazol-2-yl)methoxy)quinazolin-7-yl)-5-ethyl-6-fluoronaphthalen-2-ol] | 11 | 6 | 1460 | 2300 |
| C#Cc1cccc2cc(O)cc(-c3ccc4c(N5C[C@H]6CC[C@@H](C5)N6)nc(OC[C@@]56CCCN5C[C@H](F)C6)nc4c3F)c12 [Example 185, 4-(4-((1R,5S)-3,8-diazabicyclo[3.2.1]octan-3-yl)-8-fluoro-2-(((2R,7aS)-2-fluorotetrahydro-1H-pyrrolizin-7a(5H)-yl)methoxy)quinazolin-7-yl)-5-ethynylnaphthalen-2-ol] | 1 | 1 | 1 | 16 |
| Oc1cc(-c2ccc3c(N4C[C@H]5C[C@@H](C4)N5)nc(OC[C@@]45CCCN4C[C@H](F)C5)nc3c2F)c2ccccc2c1 [Example 4, 4-(4-((1R,5S)-3,6-diazabicyclo[3.1. 1]heptan-3-yl)-8-fluoro-2-(((2R,7aS)-2-fluorotetrahydro-1H-pyrrolizin-7a(5H)-yl)methoxy)quinazolin-7-yl)naphthalen-2-ol] | 5 | 7 | 294 | 1230 |
| C#Cc1cccc2cccc(-c3c(F)cc4c(N5[C@@H]6CC[C@H]5CNC6)nc(OC[C@@]56CCCN5C[C@H](F)C6)nc4c3F)c12 [Example 100, 4-((1R,5S)-3,8-Diazabicyclo[3.2.1]octan-8-yl)-7-(8-ethynylnaphthalen-1-yl)-6,8-difluoro-2-(((2R,7aS)-2-fluorotetrahydro-1H-pyrrolizin-7a(5H)-yl)methoxy)quinazoline] | 8 | 6 | 945 | 663 |
| Cc1ccc2cnn(C)c2c1-c1c(F)cc2c(N3C[C@H]4CC[C@@H](C3)N4)nc(OC[C@@]34CCCN3C[C@H](F)C4)nc2c1F [Example 164, 4-((1R,5S)-3,8-diazabicyclo[3.2.1]octan-3-yl)-7-(1,6-dimethyl-1H-indazol-7-yl)-6,8-difluoro-2-(((2R,7aS)-2-fluorotetrahydro-1H-pyrrolizin-7a(5H)-yl)methoxy) quinazoline] | 7 | 6 | 862 | 725 |
| Cc1c(-c2cc(O)cc3ccc(F)c(F)c23)ccc2c(N3C[C@@H]4CC[C@H]3CN4)nc(OC[C@@]34CCCN3C[C@H](F)C4)nc12 [Example 166, 4-(4-((1S,4S)-2,5-diazabicyclo[2.2.2]octan-2-yl)-2-(((2R,7aS)-2-fluorotetrahydro-1H-pyrrolizin-7a(5H)-yl)methoxy)-8-methylquinazolin-7-yl)-5,6-difluoronaphthalen-2-ol] | 94 | 82 | 4200 | 1530 |
| Oc1cc(-c2ccc3c(N4C[C@H]5CC[C@@H](C4)N5)nc(OC[C@@]45CCCN4C[C@H](F)C5)nc3c2F)c2ccccc2c1F [Example 221, 4-(4-((1R,5S)-3,8-diazabicyclo[3.2.1]octan-3-yl)-8-fluoro-2-(((2R,7aS)-2-fluorotetrahydro-1H-pyrrolizin-7a(5H)-yl)methoxy)quinazolin-7-yl)-1-fluoronaphthalen-2-ol] | 1 | 1 | 139 | 325 |
| Nc1cc(-c2c(F)cc3c(N4C[C@H]5CC[C@@H](C4)N5)nc(OC[C@@]45CCCN4C[C@H](F)C5)nc3c2F)c2ccccc2c1 [Example 116, 4-(4-((1R,5S)-3,8-diazabicyclo[3.2.1]octan-3-yl)-6,8-difluoro-2-(((2R,7aS)-2-fluorotetrahydro-1H-pyrrolizin-7a(5H)-yl)methoxy)quinazolin-7-yl)naphthalen-2-amine] | 30 | 5 | 254 | 454 |
| CCc1c(F)ccc2cc(O)cc(-c3c(Cl)cc4c(N5C[C@H]6CC[C@@H](C5)N6)nc(OC[C@@]56CCCN5C[C@H](F)C6)nc4c3F)c12 [Example 134, 4-(4-((1R,5S)-3,8-diazabicyclo[3.2.1]octan-3-yl)-6-chloro-8-fluoro-2-(((2R,7aS)-2-fluorotetrahydro-1H-pyrrolizin-7a(5H)-yl)methoxy)quinazolin-7-yl)-5-ethyl-6-fluoronaphthalen-2-ol] | 4 | 7 | 57 | 74 |
| Cc1cc(N)nc(-c2ccc3c(N4C[C@H]5CC[C@@H](C4)N5)nc(OC[C@@]45CCCN4C[C@H](F)C5)nc3c2F)c1C(F)(F)F [Example 229, 6-(4-((1R,5S)-3,8-Diazabicyclo[3.2.1]octan-3-yl)-8-fluoro-2-(((2R,7aS)-2-fluorotetrahydro-1H-pyrrolizin-7a(5H)-yl)methoxy)quinazolin-7-yl)-4-methyl-5-(trifluoromethyl)pyridin-2-amine] | 7 | 4 | 222 | 486 |
| Oc1cc(-c2c(F)cc3c(N4[C@@H]5CC[C@H]4CNC5)nc(OC[C@@]45CCCN4C[C@H](F)C5)nc3c2F)c2ncccc2c1 [Example 27, 8-(4-((1R,5S)-3,8-diazabicyclo[3.2. 1]octan-8-yl)-6,8-difluoro-2-(((2R,7aS)-2-fluorotetrahydro-1H-pyrrolizin-7a(5H)-yl)methoxy)quinazolin-7-yl)quinolin-6-ol] | 47 | 21 | 865 | 5230 |
| Cc1c(-c2cc(O)cc3ccccc23)ccc2c(N3C[C@H]4CC[C@@H](C3)N4)nc(OC[C@@]34CCCN3C[C@H](F)C4)nc12 [Example 33, 4-(4-((1R,5S)-3,8-diazabicyclo[3.2. 1]octan-3-yl)-2-(((2R,7aS)-2-fluorotetrahydro-1H-pyrrolizin-7a(5H)-yl)methoxy)-8-methylquinazolin-7-yl)naphthalen-2-ol] | 8 | 3 | 291 | 509 |
| CCc1c(F)ccc2cccc(-c3ccc4c(N5C[C@H]6CC[C@@H](C5)N6)nc(OC[C@@]56CCCN5C[C@H](F)C6)nc4c3F)c12 [Example 90, 4-((1R,5S)-3,8-diazabicyclo[3.2. 1]octan-3-yl)-7-(8-ethyl-7-fluoronaphthalen-1-yl)-8-fluoro-2-(((2R,7aS)-2-fluorotetrahydro-1H-pyrrolizin-7a(5H)-yl)methoxy) quinazoline] | 4 | 3 | 454 | 790 |
